Source: PubChem BioAssay AID179 (DTP/NCI, 2004)
pEC50, pIC50: −log10 of the molar value. The source made the active and inactive calls.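 How the source made its calls: active means compounds giving half or more protection of infected cells from virus-caused growth loss, again on retest; inactive means the rest.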 Where a SMILES comes first, the peptide text is derived from it.

Test system: CEM cells HIV-1 protection, formazan growth assay
Assay: NCI AIDS Antiviral Assay
Conditions: for pIC50: measured here: growth of uninfected CEM cells
How it was run: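 Soluble formazan readout of cell growth; CEM cells ± HIV-1; 5 drug concs. ≥50% protection → retest; ≥50% again = moderately active; reproducible 100% = confirmed active.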

| Structure (SMILES) | pEC50 | pIC50 | outcome |
| --- | --- | --- | --- |
| O[C@H]1[C@H](O)[C@@H](Cn2nnc(-c3ccccc3)c2-c2ccccc2)OCO[C@@H]1Cn1nnc(-c2ccccc2)c1-c1ccccc1 | < 3.70 | 5.02 |  |
| N/N=C(\c1ccccc1)c1ccc([N+](=O)[O-])cc1 | < 3.87 | 4.01 |  |
| COc1ccc(/C=C/C(=O)c2sc(NC(=S)NC(=O)c3ccc(Cl)cc3)nc2C)cc1OC | < 4.43 | < 4.43 |  |
| O=C(O)C[C@H]1CCCCC12CCOC2=O (stereo partly specified) |  |  | inactive |
| COC(=O)CCC(=O)Nc1ccc(Cl)cc1C |  |  | inactive |
| CC(C)CC(NC(=O)C(Cc1ccc(O)cc1)NC(=O)C(CO)NC(=O)C(N)CCC(N)=O)C(=O)NCC(=O)O (stereo unspecified) (H-QSYLG-OH; configuration not given here) |  |  | inactive |
| Cc1cn(COCCOS(C)(=O)=O)c(=O)[nH]c1=O | < 3.70 | < 3.70 |  |
| NC(=O)c1ccc2cc(O)c(O)cc2c1 | < 3.61 | 4.46 |  |
| CCOC(=O)Nc1ccc2nc(N3CCCCCC3)sc2c1 | < 4.23 | 5.99 |  |
| NNC(=O)c1ccccc1NC(=O)/C(=C/c1ccccc1O)NC(=O)c1ccccc1 | < 3.70 | < 3.70 |  |
| C=COCCC(C(=O)OCC)C(=O)OCC | < 3.70 | < 3.70 |  |
| Cc1ccc(-c2c(C#N)c(-c3ccc(N(C)C)cc3)c(C#N)c(=O)n2NS(=O)(=O)c2ccccc2)cc1 | < 3.70 | 4.74 |  |
| CC(=O)c1cc([N+](=O)[O-])ccc1OCC(=O)O |  |  | inactive |
| CCCCCC=C(c1cc(Br)cc(C(=O)O)c1OC)c1cc(Br)cc(C(=O)O)c1OC | < 3.77 | 3.78 |  |
| CC(=O)OCC1=C2C(OC(=O)C(C)C)CC3(COC(C)=O)OC3/C=C\C3(C)OC3C2OC1=O (stereo unspecified) | < 3.70 | 4.12 |  |
| CCOC1CSc2ccccc2C(c2ccccc2)=N1 (stereo unspecified) | 3.71 | < 3.70 |  |
| COC1CC(OC)C2OC(c3ccccc3)OCC2O1 (stereo unspecified) |  |  | inactive |
| O=C(Nc1cccc2nsnc12)c1ccc(C(=O)Nc2cccc3nsnc23)cc1 | < 4.64 | < 4.64 |  |
| CN(C)[C@@H]1C(=O)C(C(=O)NCNCCCC(=O)O)=C(O)[C@@]2(O)C(=O)C3=C(O)c4c(O)cccc4[C@@](C)(O)[C@H]3C[C@@H]12 | < 5.75 | < 5.75 |  |
| CN(C)P(CCPc1ccccc1)N(C)C (stereo unspecified) | < 3.01 | < 3.01 |  |
| COC1=CC(=Nc2c(Cl)cc(Cl)cc2OC(=O)c2ccc([N+](=O)[O-])cc2)C=C(OC)C1=O |  |  | inactive |

| Structure (SMILES) | pEC50 | pIC50 | outcome |
| --- | --- | --- | --- |
| Cc1cccc(-n2nc3c(=O)n(C)c(=O)n(C)c3nc2=O)c1 | < 3.70 | < 3.70 |  |
| CN(C)c1nc(N(C)C)sc(=O)n1 |  |  | inactive |
| C=CCC1C(=O)CC2(C)CC(=O)C(CC=C)C12C (stereo unspecified) |  |  | inactive |
| COc1cc(NCCN=C(N)NC#N)c2ncccc2c1 | < 3.90 | 4.05 |  |
| Cc1ccc(C)c(NC(=O)/C(=N\N)C(c2cnc3ccc([N+](=O)[O-])cc3n2)[N+](=O)[O-])c1 (stereo unspecified) | < 3.23 | 3.66 |  |
| Cc1cn(C2COC(C)(CO)O2)c(=O)[nH]c1=O (stereo unspecified) | < 3.70 | < 3.70 |  |
| Cc1ccc(C2=C(c3ccccc3)C(O)(c3ccc(C)cc3)C(c3ccccc3)=C2c2ccc(C)cc2)cc1 | < 5.29 | < 5.29 |  |
| CCOC(=O)C(Cc1c2ccccc2cc2ccccc12)(NC(C)=O)C(=O)OCC | < 3.70 | < 3.70 |  |
| COC(=O)Nc1nc2cc(OC)c(OC)cc2c(=O)[nH]1 | < 3.70 | 5.06 |  |
| O=C1c2ccccc2-c2c1c1ccccc1c(=O)n2CCO | < 4.46 | 5.71 |  |
| COc1ccc(/C=c2\[nH]c3nc(=O)c(N4CCCCC4)c(N)n3c2=O)cc1 | < 3.70 | 3.92 |  |
| O=C1C(=O)N(C(=O)c2ccc(Cl)c(Cl)c2)c2ccccc21 |  |  | inactive |
| COC(=O)c1ccccc1C1CN=NC12Cc1cccc(C)c1C2=O (stereo unspecified) | < 3.70 | 4.24 |  |
| C/C(=N\N=C(N)N)C(CN(C)C)C(c1ccccc1)c1c(O)c2ccccc2oc1=O (stereo unspecified) | < 4.39 | 4.76 |  |
| Cc1cc2c(cc1C)[n+](=O)c(N1CCN(c3ccc([N+](=O)[O-])cc3)CC1)c(C#N)n2[O-] | < 4.30 | < 4.30 |  |
| CCOC(=O)c1cn2c(n1)sc1cccc(C)c12 | < 3.70 | < 3.70 |  |
| Clc1ccc2cccc3c2c1C1OC3c2ccccc21 (stereo unspecified) |  |  | inactive |
| CC(=O)c1cc(S(=O)(=O)c2ccc(O)c(C(C)=O)c2)ccc1O | < 3.70 | 4.37 |  |
| Cc1cc2c(C(C)C)c(O)c(O)c(C=NC(C)c3ccccc3)c2c(O)c1-c1c(C)cc2c(C(C)C)c(O)c(O)c(C=NC(C)c3ccccc3)c2c1O (stereo unspecified) | < 5.14 | < 5.14 | inactive |
| CCCCNC1=C(C(=O)OCC)C(=O)CO1 | < 3.10 | 3.35 |  |
| N#Cc1c(N=C2CCCCC2)c(C(=O)Nc2ccccc2)n2c1CCC2 | < 4.00 | < 4.00 |  |

| Structure (SMILES) | pEC50 | pIC50 | outcome |
| --- | --- | --- | --- |
| CCCNC(=O)c1sc(SC)nc1NC(=O)c1ccc(OC)cc1 | < 3.70 | < 3.70 |  |
| NC1CCC(C(=O)C2CCC(O)CC2O)CC1 (stereo unspecified) | < 3.70 | 4.74 |  |
| Cc1ccc(S(=O)(=O)N/N=C(\c2nc3ccc(Cl)cc3[nH]c2=O)C(O)c2cccc([N+](=O)[O-])c2)cc1 (stereo unspecified) | < 3.33 | 3.79 |  |
| Cc1c2ccnc(C#N)c2c(C)c2c1[nH]c1ccccc12 |  |  | inactive |
| CCCCSCc1nc2ccccc2c(C)[n+]1[O-] | 3.63 | 3.36 |  |
| Cc1ccccc1[B-]12OCC[N+]1(CNC(=O)C1=C(O)C3(O)C(=O)C4=C(O)c5c(O)cccc5C(C)(O)C4CC3C(N(C)C)C1=O)CCO2 (stereo unspecified) | < 4.27 | < 4.27 |  |
| CC(=O)OC1C(CN2CCOC2=O)OC(n2ccc(=O)[nH]c2=O)C1OC(C)=O (stereo unspecified) | < 3.70 | < 3.70 |  |
| Cc1ccc(N=C2S/C(=C3/CCC=C3N3CCOCC3)N(c3ccc(Cl)cc3)C2=Nc2ccc(C)cc2)cc1 | < 3.70 | < 3.70 |  |
| COc1cc(CNc2nc3ccccc3nc2C(=O)O)cc(OC)c1OC | < 3.70 | 4.13 |  |
| Cc1cc(=O)c2c([nH]1)c1c(c3[nH]c(C)cc(=O)c32)Oc2ccccc2O1 | < 3.89 | 4.03 |  |
| O=C(O)c1cccc(Nc2ccccc2C(=O)O)c1 | < 3.29 | < 3.29 |  |
| O=[N+]([O-])c1ccccc1S(=O)(=O)N1CCCc2cc(Cl)ccc21 | < 3.70 | 4.78 |  |
| Cc1ccc(C2(c3ccccc3)OC3OC=CC32)cc1 (stereo unspecified) | < 3.70 | 4.15 |  |
| O=S(=O)(F)c1cc(C[P+](c2ccccc2)(c2ccccc2)c2ccccc2)ccc1Cl | < 3.70 | 4.04 |  |
| COC(=O)C1(c2ccc(N(C)C)cc2OC)CCCN(C(=O)Oc2ccccc2[N+](=O)[O-])CCc2c1[nH]c1ccccc21 (stereo unspecified) | < 3.70 | < 3.70 |  |
| CC(C)=CCCC(O)C1CCC2C3CCC4CCCCC4(C)C3CCC12C (stereo unspecified) | < 4.00 | 4.06 |  |
| COc1ccc(OC)c(/C=C2\CCc3ccccc3C2=O)c1 | < 4.75 | 5.54 |  |
| C=CCC1CCN(C=C)C1=O (stereo unspecified) | < 2.78 | 2.80 |  |
| C1CN2CN1CN1CCN(C1)C2 | < 3.70 | 4.64 |  |
| Cc1cc(=O)[nH]c(NN2C(Cl)C(=O)C2c2ccco2)n1 (stereo unspecified) | < 4.75 | < 4.75 |  |
| O=C(C/C=C/c1ccccc1)c1ccccc1 | < 3.70 | 5.00 |  |
